What was measured:
[1] = system: sheep blood cells; assay: Hemolytic activity; assay type: cell-based; conditions: Ovis aries, Erythrocyte; sheep erythrocytes, 1 h; selection criterion; read-out: IC50 hemolysis
Description: (§1) Toxicity assessment was performed by using sheep blood cells, human renal proximal tubular epithelial HK-2, and human hepatocarcinoma HepG2. Briefly, 8% erythrocyte suspensions were incubated with the test compounds (0–250 µM) for 1 h at 37 °C. After centrifugation, supernatants were transferred to a 96-well plate, and absorbance was measured at 570 nm.
(§2) The HepG2 and HK-2 cells (10^4 cells/well) were cultured in DMEM medium containing 10% fetal bovine serum (FBS) and then placed in a 5% CO2 incubator for 24 h. The culture medium was replaced with fresh DMEM medium containing the compounds (0–250 µM), followed by a further 24 h incubation. Subsequently, 10 µL of CCK-8 was added and incubated for 1 h, and OD450nm values were measured.Hemolysis% = [OD570nm(drug) − OD570nm(blank)]/[OD570nm(TritonX−100) − OD570nm(blank)] × 100%Cell viability% = [OD450nm(drug) − OD450nm(blank)]/[OD450nm(negative) − OD450nm(blank)] × 100%

[2] = Cytotoxicity (CCK-8); assay type: cell-based; conditions: human, HK-2 cells and HepG2 cells; HK-2 and HepG2, 24 h; selection criterion
Description: as §1, §2

[3] = Isothermal titration calorimetry (ITC); assay type: binding; conditions: 25 °C, β,β-Dim vs CL
Description: An isothermal titration calorimetry (ITC) assay was used to assess the affinity between β,β-Dim and PE, PG, and CL using NANO ITC (TA, New Castle, DE, USA). β,β-Dim (0.01 mM) was loaded into the sample cell and titrated with 20 injections of 2 μL membrane components (0.2 mM) at 120 s intervals. The assay was performed at 25 °C with a stirring rate of 350 rpm. Data were analyzed using the independent binding model to calculate the dissociation constant (KD), stoichiometric ratio (n), enthalpy change (ΔH), and entropy change (ΔS).

[4] = system: E. coli BW25113, E. coli BW25113-mcr-1, and E. coli BW25113-pmrBR93P; assay: Intracellular β,β-Dim content (HPLC-MS/MS); assay type: cell-based; conditions: β,β-Dim 16 μg/mL with colistin 0–1 × MIC; three E. coli strains
Description: Overnight cultures E. coli BW25113, E. coli BW25113-mcr-1, and E. coli 1 BW25113-pmrBR93P were diluted to 10^8 CFU/mL and then co-incubated with colistin (0.5 × MIC) in the presence of β,β-Dim (0–4 μg/mL) for 30 min at 37 °C. The cultures were centrifuged and resuspended in 30% methanol. Bacteria were disrupted by sonication and centrifugation, supernatants were diluted in 20% acetonitrile, and intracellular colistin was quantified via HPLC-MS/MS (TQ-XS, Waters, Milford, MA, USA). Analyses were performed on a CORTECS Shield RP C18 column (Waters, Milford, MA, USA) at 40 °C, with a flow rate of 0.4 mL/min and an injection volume of 5 μL. The mobile phases consisted of solvent A (0.5% formic acid and acetonitrile in water) and solvent B (0.5% formic acid in water). Colistin was detected in positive ESI mode with ion transitions […] and m/z 386.0 > 101.0. […] Mobile phases included solvent A (acetonitrile) and solvent B (water). β,β-Dim was detected in the negative electrospray ionization (ESI) mode with ion transitions m/z 369.1 > 269.0 and m/z 369.1 > 241.0.

SMILES: CC(C)=CC[C@H](OC(=O)C=C(C)C)C1=CC(=O)c2c(O)ccc(O)c2C1=O [β,β-Dim, β,β-dimethylacrylalkannin]
- IC50 [1]: > 10 µM
- IC50 at 24 h [2]: > 10 µM
- Kd [3]: 12.4 µM
- intracellular β,β-Dim accumulation [4]: approximately 60 ng per 10^8 CFUs
